From patent US20190328658A1, “ESTROGEN PRODRUGS AND METHODS OF ADMINISTERING ESTROGEN PRODRUGS” (Evestra, Inc., priority 2018, published 2019)
Converted amounts (≈) assume the structure as drawn.

Legend:
[1] = EP '025; cited from earlier work
Log P = type: physicochemical; settings: Table 2
Excerpt: Example 10: Determination of Log p and Permeability Values of Estriol Prodrugs

physchem = settings: 37 °C, water, thermodynamic from solid
Protocol: (§5) Solubilities were determined by shaking (24 hours) an excess of steroid in 20 ml of water/medium at 37° C. Following equilibrium, a portion was passed through a 0,22m-my filter and the steroid concentration in the filtrate was determined by high-performance liquid chromatography.

[2] = in vitro release rates of estriol prodrugs from intravaginal rings; type: physicochemical; settings: for Burst Release d1 / Burst Release d2 / Average API release d3-d21: ring, API loading 5.0 %, core polymer EVA28/2.5 (E3: EVA26/4.0), 37°C; for Burst Release d1: day 1; for Burst Release d2: day 2; for Average API release d3-d21: days 3-21
Protocol: The estriol prodrugs were processed via hot-melt extrusion and subsequent ring closure to intravaginal rings: […] The hot melt extrusion line for processing the estriol containing EVA28 powder consisted of an 18 mm twin screw extruder, equipped with a loss in weight feeder for dosing the drug containing premix into the extruder. Extrusion was performed at low throughputs of approx. 2 kg/h, the temperature profile of the extruder barrels was adjusted to yield a melt temperature of approx. 125° C. After leaving the die, the strands were directly conveyed through a water bath to obtain a fast cooling process and minimize potential strand deformation. As haul-off unit, a strand pelletizer without knives was used to pull and convey the strand accurately through all downstream sections, ensuring homogeneous strand diameters and a […] shape. […] The cross-sectional diameter of the co-extrudate was measured in-line with a laser system (3 laser heads). […] Alternatively, the ring closure was accomplished via an injection molding process equipment, equipped with a 4.0 mm mold (one or multiple cavities), using EVA28 placebo material as injection material. To determine the in vitro release rates, a rotational incubator, operated at 37±0.5° C., is used. The dissolution medium type, the dissolution medium volume and the rotational speed of the used incubator are selected to provide sink conditions.

[3] = Solubility in EVA by hot stage microscopy; type: physicochemical; settings: for Solubility in EVA28/2.5 at 37° C. (via HSM): EVA28/2.5, hot stage microscopy
Excerpt: Solubilities in EVA were estimated by hot stage microscopy.

[4] = Caco-2 permeability (A-to-B); type: in vitro ADME; settings: human; Caco-2, A-to-B, 120 minutes, dosing 5myM
Protocol: (§1) Caco-2 cells (clone C2BBel) were obtained from American Culture Collection. Cell monolayers were grown to confluence on collagen-coated, microporous membranes in 12-well assay plates. The permeability assay buffer was Hank's balanced salt solution. The buffer in the receiving chamber also contained 1% bovine serum albumin. The dosing solution concentration was 5myMof test article in the assay buffer. Cell monolayers were dosed on the apical side (A-to-B) and incubated at 37° C. with 5% CO2 in a humidified incubator. Samples were taken from the donor and receiver chamber at 120 minutes. All samples were assayed by LC-MS/MS using electrospray ionization. The apparent permeability (Papp) were calculated as follows: […]
(§2) With dCr/dt being the slope of the cumulative concentration in the recover compartment versus time in ny Ms^−1;
(§3) Vr is the volume of the receiver compartment in cm^3
(§4) A is the area of the insert (1.13 cm^2 for 12-well)

[5] = tested on: Caco-2 cells (clone C2BBel); assay: Caco-2 permeability (A-to-B); type: in vitro ADME; settings: Caco-2
Protocol: as §1, §2, §3, §4

[6] = stated in discussion; cited from earlier work
[7] = vaginal or oral application; cited from earlier work
[8] = Solubility in water/medium (shaking 24 hours, HPLC); settings: 37 °C, thermodynamic from solid
Protocol: as §5

[9] = depending on the model applied; cited from earlier work
[10] = cited from earlier work

CC(=O)O[C@H]1CC[C@H]2[C@@H]3CCc4cc(O)ccc4[C@H]3CC[C@]12C [17-acetate derivative of estradiol]
daily release rate compared to estradiol [1]: around 3 fold

C[C@]12CCC3c4ccc(O)cc4CCC3C1C[C@@H](O)[C@@H]2OC(=O)C1CC1 (stereo partly drawn) [EC537, (16R,17R)-3,16-dihydroxy-7,8,9,11,12,13,14,15,16,17-decahydro-6H-cyclopenta α phenanthren-17-yl cyclopropanecarboxylate]
logP (Log P): 3.55 | solubility at 24 h (physchem): 4.2 µg/mL (≈ 11.8 µM) | daily release rate compared to estriol-3-acetate [2]: around 10 fold | Burst Release d1 [2]: 15521.1 µg | Burst Release d2 [2]: 6229.4 µg | Average API release d3-d21 [2]: 1785.5 µg/day | Solubility in EVA28/2.5 at 37° C. (via HSM) [3]: 4-5 wt % | Papp A→B at 120 min, 5 µM [4]: 24 ×10⁻⁶ cm/s | recovery at 120 min, 5 µM [4]: 26%

CC(=O)Oc1ccc2c(c1)CCC1C2CC[C@@]2(C)C1C[C@@H](O)[C@@H]2O (stereo partly drawn) [EC5104, (8xi,9xi,14xi,16α,17β)-16,17-dihydroxyestra-1(10),2,4-trien-3-yl acetate]
logP (Log P): 3.02 | solubility at 24 h (physchem): 57.8 µg/mL | Burst Release d1 [2]: 2891.6 µg | Burst Release d2 [2]: 1322.0 µg | Average API release d3-d21 [2]: 548.1 µg/day | solubility in EVA compared to estriol [3]: comparable to the estriol solubility in EVA | Solubility in EVA28/2.5 at 37° C. (via HSM) [3]: 0.5 wt % | Papp A→B at 120 min, 5 µM [4]: 23.7 ×10⁻⁶ cm/s | recovery at 120 min, 5 µM [4]: 64%

C[C@]12CCC3c4ccc(OC(=O)C5CC5)cc4CCC3C1C[C@@H](O)[C@@H]2O (stereo partly drawn) [EC5105, (8xi,9xi,14xi,16α,17β)-16,17-dihydroxyestra-1(10),2,4-trien-3-yl cyclopropanecarboxylate]
logP (Log P): 3.38 | solubility at 24 h (physchem): 4.9 µg/mL (≈ 13.7 µM) | Burst Release d1 [2]: 4301.1 µg | Burst Release d2 [2]: 1369.8 µg | Average API release d3-d21 [2]: 567.3 µg/day | Solubility in EVA28/2.5 at 37° C. (via HSM) [3]: 0.5-2 wt % | Papp A→B at 120 min, 5 µM [4]: 1.76 ×10⁻⁶ cm/s | recovery at 120 min, 5 µM [4]: 3% | Caco-2 permeability, comparison in words [5]: very low permeability compared to the 17 analog

C[C@]12CCC3c4ccc(OC(=O)C5CC5)cc4CCC3C1C[C@@H](O)[C@@H]2OC(=O)C1CC1 (stereo partly drawn) [EC5106, 3,16α,17β-Trihydroxyestra-1,3,5(10)-triene 3,17-biscyclopropane carboxylate]
logP (Log P): 3.99 | Papp A→B at 120 min, 5 µM [4]: 11.4 ×10⁻⁶ cm/s | recovery at 120 min, 5 µM [4]: 25%

C#C[C@]1(O)CC[C@H]2[C@@H]3CCc4cc(O)ccc4[C@H]3CC[C@@]21C [EE, ethinyl estradiol, reference compound]
logP (Log P): 4.52 | Papp A→B at 120 min, 5 µM [4]: 42.5 ×10⁻⁶ cm/s | recovery at 120 min, 5 µM [4]: 59%

C[C@]12CC[C@@H]3c4ccc(O)cc4CC[C@H]3[C@@H]1CC[C@@H]2O [Example E2, estradiol, reference compound]
logP (Log P): 4.13 | log P [6]: 3.94 | recovery at 120 min, 5 µM [4]: 15%

C[C@]12CC[C@@H]3c4ccc(O)cc4CC[C@H]3[C@@H]1C[C@@H](O)[C@@H]2O [Example E3, Estriol]
log P [6]: 2.81 | Burst Release d1 [2]: 665.1 µg | Burst Release d2 [2]: 294.5 µg | Average API release d3-d21 [2]: 119.4 µg/day | time after application after which no estriol plasma level above the limit could be determined [7]: 4 to 6 h | solubility at 24 h ([8]; water + 2% SLS, aqueous with cosolvent or surfactant or cyclodextrin): 465 µg/mL | solubility at 24 h ([8]; water): 58.4 µg/mL (≈ 203 µM) | Solubility in EVA28/2.5 at 37° C. (via HSM) [3]: 0.5-1% | reduction in activity compared to estradiol [9]: 10 to 30%

CC(=O)Oc1ccc2c(c1)CC[C@@H]1[C@@H]2CC[C@]2(C)[C@@H](O)CC[C@@H]12 [estradiol-3-acetate, estradiol 3-acetate]
daily release rate compared to estradiol [1]: above 45 fold | solubility in silicone compared to estradiol ([10]; silicone): around 10 fold | solubility in water compared to estradiol ([10]; water): twofold higher
